US20230233576A1, “ECLITASERTIB FOR USE IN TREATING CONDITIONS INVOLVING SYSTEMIC HYPERINFLAMMATORY RESPONSE” (priority 2020, published 2023)
Values joined by “and” are separate entries in the source; they are usually repeats but may differ in a detail not shown here. Equal values may be shown once.

Assays:
[1] = non-human primate toxicology studies; assay type: in vivo; conditions: up to 29 days and up to 500 mg/kg/day
[2] = test system: C-reactive protein (CRP) levels; experiment: Phase 1b severe COVID-19 study: CRP level; assay type: in vivo, human; conditions: 600 mg; for CRP raw data Mean / CRP relative change from baseline Mean / CRP raw data Median / CRP relative change from baseline Median: observed; for CRP raw data Mean / CRP relative change from baseline Mean: no imputation
[3] = test system: adult participants hospitalized for severe COVID-19; experiment: Phase 1b severe COVID-19 study: 7-point clinical scale; assay type: in vivo, human; conditions: 600 mg
Text: Exploratory clinical assessments endpoints included: • Change from baseline in ferritin and LDH at Day 7 and EOT • Proportion of participants per category of the 7-point clinical scale at EOT • Time to improvement by 2 points in category of 7-point clinical scale • Quantitative SARS-COV-2 viral load in blood at baseline and on Day 3, 5, 7 and EOT
The 7-point clinical scale is described below: • 1. Death • 2. Hospitalized, on invasive mechanical ventilation or ECMO • 3. Hospitalized, on non-invasive ventilation or high flow oxygen devices • 4. Hospitalized, requiring supplemental oxygen • 5. Hospitalized, not requiring supplemental oxygen—requiring ongoing medical care (COVID-19 related or otherwise) • 6. Hospitalized, not requiring supplemental oxygen—no longer requires ongoing medical care • 7. Not hospitalized

[4] = test system: adult participants hospitalized for severe COVID-19; experiment: Phase 1b severe COVID-19 study: ECG abnormalities (PCSA); assay type: in vivo, human; conditions: for HR (bpm) Delta (change from baseline) / HR (bpm) Value / PR % change from baseline / PR (ms) Value / QRS % change from baseline / QRS (ms) Value / QT (ms) Delta (change from baseline) / QT (ms) Value / QTcB (ms) Delta (change from baseline) / QTcB (ms) Value / QTcF (ms) Delta (change from baseline) / QTcF (ms) Value: Discharge Before Day 15
Method: Physical examination including lung auscultation and assessment of consciousness, vital sign, electrocardiogram (ECG) parameters were measured per protocol.
For laboratory parameters (hematology, clinical chemistry, and urinalysis), vital signs, and ECG, incidences of potentially clinically significant abnormality (PCSA) values, actual values and change from baseline were summarized by treatment group.
For all laboratory, vital signs and ECG parameters, raw data and change from baseline were summarized in descriptive statistics by treatment group and scheduled time of measurement, with the exception of AST, ALT and alkaline phosphatase: instead of summarizing data in descriptive statistics, participants' profiles were presented through graphics by treatment group and with a color code to identify sites. The reason was that blood samples were processed by local laboratories with different normal ranges. For the rest of clinical laboratory these parameters it is reasonable to pool data as they are standard procedure and no significant differences in normal ranges were expected.

[5] = Day 03, MMRM, LOCF, Efficacy population
[6] = Day 05, MMRM, LOCF, Efficacy population
[7] = Day 07, MMRM, LOCF, Efficacy population
[8] = Day 15, MMRM, LOCF, Efficacy population
[9] = Kaplan-Meier, Efficacy population
[10] = EOT, Efficacy population (N = 41)
[11] = 600 mg (N = 47), TEAE period, safety population
[12] = individual participant 84.0 kg, 600 mg
[13] = individual participant 98.0 kg, 600 mg
[14] = individual participant 114.0 kg, 600 mg

CN1C(=O)[C@@H](NC(=O)c2nnc(Cc3ccccc3)[nH]2)COc2cccnc21 [RIPK1 Inhibitor, (S)-5-benzyl-N-(5-methyl-4-oxo-2,3,4,5-tetrahydropyrido[3,2-b][1,4]oxazepin-3-yl)-4H-1,2,4-triazole-3-carboxamide]
safety concerns in toxicology studies [1]: did not raise any safety concerns | Percent change from baseline in CRP, point estimate [2, 5]: −12.85% | Relative change from baseline in CRP, point estimate (geometric means) [2, 5]: 0.87 | CRP raw data Mean ([2]; Day 3, Efficacy population): 59.4 mg/L | CRP relative change from baseline Mean ([2]; Day 3, Efficacy population): 0.58 and 0.581 | CRP raw data Median ([2]; Day 3, Efficacy population): 44.4 mg/L | CRP relative change from baseline Median ([2]; Day 3, Efficacy population): 0.384 | relative change from baseline in CRP, RIPK1 Inhibitor versus placebo ratio ([2]; Day 3, with imputation of missing data): 0.91 | relative change from baseline in CRP, RIPK1 Inhibitor versus placebo ratio ([2]; Day 3, without imputation of missing data): 0.92 | Percent change from baseline in CRP, point estimate [2, 6]: −51.43% | Relative change from baseline in CRP, point estimate (geometric means) [2, 6]: 0.49 | CRP raw data Mean ([2]; Day 5, Efficacy population): 37.7 mg/L | CRP relative change from baseline Mean ([2]; Day 5, Efficacy population): 0.37 and 0.368 | CRP raw data Median ([2]; Day 5, Efficacy population): 24.2 mg/L | CRP relative change from baseline Median ([2]; Day 5, Efficacy population): 0.195 | relative change from baseline in CRP, RIPK1 Inhibitor versus placebo ratio ([2]; Day 5, with imputation of missing data): 0.70 | relative change from baseline in CRP, RIPK1 Inhibitor versus placebo ratio ([2]; Day 5, without imputation of missing data): 0.73 | mean of relative change from baseline in CRP ([2]; Day 7, LOCF imputation): 0.315 | median of relative change from baseline in CRP ([2]; Day 7, LOCF imputation): 0.165 | Percent change from baseline in CRP, point estimate [2, 7]: −64.81% | Relative change from baseline in CRP, point estimate (geometric means) [2, 7]: 0.35 | ratio of the adjusted relative change from baseline in CRP, RIPK1 Inhibitor vs placebo (point estimate) ([2]; Day 7, MMRM, LOCF, Efficacy population, below 1 = larger decrease than placebo): 0.85 | observed mean of CRP ([2]; Day 7, missing values imputed with LOCF): 28.1 mg/L | CRP raw data Mean ([2]; Day 7, Efficacy population): 24.2 mg/L | CRP relative change from baseline Mean ([2]; Day 7, Efficacy population): 0.289 | CRP raw data Median ([2]; Day 7, Efficacy population): 14.0 mg/L | CRP relative change from baseline Median ([2]; Day 7, Efficacy population): 0.119 | Percent change from baseline in CRP, point estimate [2, 8]: −71.76% | Relative change from baseline in CRP, point estimate (geometric means) [2, 8]: 0.28 | CRP raw data Mean ([2]; Day 15, Efficacy population): 29.2 mg/L | CRP relative change from baseline Mean ([2]; Day 15, Efficacy population): 0.380 | CRP raw data Median ([2]; Day 15, Efficacy population): 9.6 mg/L | CRP relative change from baseline Median ([2]; Day 15, Efficacy population): 0.092 | median time for 50% decrease in CRP level relative to baseline [2, 9]: 3 days | participants with 50% decrease from baseline in CRP ([2]; by Day 3): 69.2% | 7-point clinical scale category 3, participants [3, 10]: 0 n | 7-point clinical scale category 5, participants [3, 10]: 0 n | 7-point clinical scale category 6, participants [3, 10]: 0 n | median time to improvement by at least 2 points in the category of 7-point scale [3, 9]: 8 days | participants with a 7-point clinical scale score of 5 or lower ([3]; end of study treatment period or early discontinuation): 15% | ECG PCSA Heart Rate <40 beats/min [4, 11]: 0/44 | ECG PCSA Heart Rate <50 beats/min [4, 11]: 1/44 | ECG PCSA Heart Rate <50 beats/min and decrease from baseline ≥20 beats/min [4, 11]: 0/44 | ECG PCSA Heart Rate >100 beats/min [4, 11]: 3/44 | ECG PCSA Heart Rate >100 beats/min and increase from baseline ≥20 beats/min [4, 11]: 3/44 | ECG PCSA Heart Rate >120 beats/min [4, 11]: 1/44 | ECG PCSA Heart Rate >120 beats/min and increase from baseline 20 beats/min [4, 11]: 1/44 | ECG PCSA Heart rate>90 beats/min [4, 11]: 6/44 | ECG PCSA PR Interval >200 msec [4, 11]: 1/43 | ECG PCSA PR Interval >200 msec and increase from baseline ≥25% [4, 11]: 0/43 | ECG PCSA PR Interval >220 msec [4, 11]: 1/43 | ECG PCSA PR Interval >220 msec and increase from baseline ≥25% [4, 11]: 0/43 | ECG PCSA PR Interval >240 msec [4, 11]: 0/43 | ECG PCSA QRS Interval >110 msec [4, 11]: 6/44 | ECG PCSA QRS Interval >110 msec and increase from baseline ≥25% [4, 11]: 3/44 | ECG PCSA QRS Interval >120 msec [4, 11]: 3/44 | ECG PCSA QRS Interval >120 msec and increase from baseline ≥25% [4, 11]: 2/44 | ECG PCSA QT Interval >500 msec [4, 11]: 0/44 | ECG PCSA QTc Bazett - change from baseline: Increase from baseline >60 msec [4, 11]: 5/39 | ECG PCSA QTc Bazett - change from baseline: Increase from baseline ]30-60] msec [4, 11]: 2/39 | ECG PCSA QTc Bazett >450 msec [4, 11]: 5/44 | ECG PCSA QTc Bazett >500 msec [4, 11]: 3/44 | ECG PCSA QTc Bazett>480 msec [4, 11]: 3/44 | ECG PCSA QTc Fridericia - change from baseline: Increase from baseline >60 msec [4, 11]: 2/25 | ECG PCSA QTc Fridericia - change from baseline: Increase from baseline ]30-60] msec [4, 11]: 2/25 | ECG PCSA QTc Fridericia >450 msec [4, 11]: 1/29 | ECG PCSA QTc Fridericia >480 msec [4, 11]: 1/29 | ECG PCSA QTc Fridericia >500 msec [4, 11]: 0/29 | ECG PCSA heart rate>90 beats/min and increase from baseline≥20 beats/min [4, 11]: 5/44 | ECG PCSA Heart rate>90 beats/min ([4]; 600 mg, TEAE period): 6 participants | ECG PCSA QRS interval>110 ms ([4]; 600 mg, TEAE period): 6 participants | ECG PCSA QTc Bazett (QTcB)>450 ms ([4]; 600 mg, TEAE period): 5 participants | ECG PCSA QTc Bazett change from baseline>60 ms ([4]; 600 mg, TEAE period): 5 participants | ECG PCSA QTc Bazett>480 msec ([4]; 600 mg, TEAE period): 3 participants | ECG PCSA QTc Bazett>500 ms ([4]; 600 mg, TEAE period): 3 participants | ECG PCSA heart rate>90 beats/min and increase from baseline≥20 beats/min ([4]; 600 mg, TEAE period): 5 participants | HR (bpm) Delta (change from baseline) [4, 12]: −5 bpm | HR (bpm) Value [4, 12]: 73 bpm | PR % change from baseline [4, 12]: 0.0% | PR (ms) Value [4, 12]: 120 ms | QRS % change from baseline [4, 12]: 5.0% | QRS (ms) Value [4, 12]: 84 ms | QT (ms) Delta (change from baseline) [4, 12]: 0 ms | QT (ms) Value [4, 12]: 380 ms | QTcB (ms) Delta (change from baseline) [4, 12]: 69 ++ ms | QTcB (ms) Value [4, 12]: 449 ms | QTcF (ms) Delta (change from baseline) [4, 12]: -34 ms | QTcF (ms) Value [4, 12]: 380 ms | HR (bpm) Delta (change from baseline) [4, 13]: −1 bpm | HR (bpm) Value [4, 13]: 81 bpm | PR % change from baseline [4, 13]: 12.3% | PR (ms) Value [4, 13]: 164 ms | QRS % change from baseline [4, 13]: −14% | QRS (ms) Value [4, 13]: 95 ms | QT (ms) Delta (change from baseline) [4, 13]: -3 ms | QT (ms) Value [4, 13]: 371 ms | QTcB (ms) Delta (change from baseline) [4, 13]: 84 ++ ms | QTcB (ms) Value [4, 13]: 431 ms | QTcF (ms) Delta (change from baseline) [4, 13]: -5 ms | QTcF (ms) Value [4, 13]: 410 ms | HR (bpm) Delta (change from baseline) [4, 14]: 38 + bpm | HR (bpm) Value [4, 14]: 96 + bpm | PR % change from baseline [4, 14]: −11% | PR (ms) Value [4, 14]: 160 ms | QRS % change from baseline [4, 14]: −20% | QRS (ms) Value [4, 14]: 80 ms | QT (ms) Delta (change from baseline) [4, 14]: -30 ms | QT (ms) Value [4, 14]: 360 ms | QTcB (ms) Delta (change from baseline) [4, 14]: 72 ++ ms | QTcB (ms) Value [4, 14]: 455 + ms | QTcF (ms) Delta (change from baseline) [4, 14]: 36 + ms | QTcF (ms) Value [4, 14]: 421 ms
